From the supplement of paper PMC10307832

How the values were obtained:
Test in all cases: relative viability (nuclei count vs DMSO), 5 days (fraction); higher = more cells survive
NCI-H727 = test system: NCI-H727
Summary of the method: (§1)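 Nuclei were stained with Hoechst during a one-step fixation (final 0.05% Triton X-100, 1% formaldehyde, 1 ug/ml Hoechst) carried out 5 days after dosing, then counted on 4× images. The cells, lung cancer lines in 1536-well plates, had been dosed by pin tool the day after seeding with one drug alone or a fixed anchor-drug dose plus five library-drug doses (not always all listed) in √10 steps. Relative viability is the nuclei count in treated wells divided by that in vehicle wells, and each value is the median of duplicate plates.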

NCI-H23 = test system: NCI-H23
Summary of the method: as §1

NCI-H1437 = test system: NCI-H1437
Summary of the method: as §1

NCI-H1975 = test system: NCI-H1975
Summary of the method: as §1

NCI-H1915 = test system: NCI-H1915
Summary of the method: as §1

A-427 = test system: A-427
Summary of the method: as §1

COR-L 105 = test system: COR-L 105
Summary of the method: as §1

NCI-H1792 = test system: NCI-H1792
Summary of the method: as §1

NCI-H460 = test system: NCI-H460
Summary of the method: as §1

NCI-H2228 = test system: NCI-H2228
Summary of the method: as §1

HARA = test system: HARA
Summary of the method: as §1

LCLC-103H = test system: LCLC-103H
Summary of the method: as §1

EMC-BAC-2 = test system: EMC-BAC-2
Summary of the method: as §1

NCI-H1355 = test system: NCI-H1355
Summary of the method: as §1

CAL-12T = test system: CAL-12T
Summary of the method: as §1

NCI-H1755 = test system: NCI-H1755
Summary of the method: as §1

HCC-366 = test system: HCC-366
Summary of the method: as §1

NCI-H1395 = test system: NCI-H1395
Summary of the method: as §1

SW 1573 = test system: SW 1573
Summary of the method: as §1

HCC-827 = test system: HCC-827
Summary of the method: as §1

SK-LU-1 = test system: SK-LU-1
Summary of the method: as §1

NCI-H2009 = test system: NCI-H2009
Summary of the method: as §1

HOP-62 = test system: HOP-62
Summary of the method: as §1

**Q.** With `O=C(O)c1ccc(-c2c[nH]c3ncc(-c4ccccc4)cc23)cc1C1CCCC1` + O=C(c1cc(Cc2n[nH]c(=O)c3ccccc23)ccc1F)N1CCN(C(=O)C2CC2)CC1 [Olaparib] (partner 8 µM) as the compound, how does the relative viability (NCI-H727; first compound 0.04 µM) read?
**A.** 0.629

**Q.** And the relative viability (NCI-H727; first compound 0.1265 µM)?
**A.** 0.713

**Q.** And the relative viability (NCI-H727; first compound 0.4 µM)?
**A.** 0.633

**Q.** What about the relative viability (NCI-H727; first compound 1.265 µM) of the same compound?
**A.** 0.563

**Q.** And the relative viability (NCI-H23; first compound 0.04 µM)?
**A.** 0.34

**Q.** What about the relative viability (NCI-H23; first compound 0.1265 µM) of the same compound?
**A.** 0.33

**Q.** And the relative viability (NCI-H23; first compound 0.4 µM)?
**A.** 0.289

**Q.** What about the relative viability (NCI-H23; first compound 1.265 µM) of the same compound?
**A.** 0.271

**Q.** What about the relative viability (NCI-H1437; first compound 0.04 µM) of the same compound?
**A.** 0.666

**Q.** What about the relative viability (NCI-H1437; first compound 0.1265 µM) of the same compound?
**A.** 0.633

**Q.** And the relative viability (NCI-H1437; first compound 0.4 µM)?
**A.** 0.556

**Q.** What about the relative viability (NCI-H1437; first compound 1.265 µM) of the same compound?
**A.** 0.279

**Q.** And the relative viability (NCI-H1975; first compound 0.04 µM)?
**A.** 0.724

**Q.** What about the relative viability (NCI-H1975; first compound 0.1265 µM) of the same compound?
**A.** 0.801

**Q.** And the relative viability (NCI-H1975; first compound 0.4 µM)?
**A.** 0.842

**Q.** What about the relative viability (NCI-H1975; first compound 1.265 µM) of the same compound?
**A.** 0.539

**Q.** And the relative viability (NCI-H1915; first compound 0.04 µM)?
**A.** 0.266

**Q.** And the relative viability (NCI-H1915; first compound 0.1265 µM)?
**A.** 0.25

**Q.** And the relative viability (NCI-H1915; first compound 0.4 µM)?
**A.** 0.226

**Q.** What about the relative viability (NCI-H1915; first compound 1.265 µM) of the same compound?
**A.** 0.203

**Q.** What about the relative viability (A-427; first compound 0.04 µM) of the same compound?
**A.** 0.706

**Q.** And the relative viability (A-427; first compound 0.1265 µM)?
**A.** 0.845

**Q.** What about the relative viability (A-427; first compound 0.4 µM) of the same compound?
**A.** 0.644

**Q.** What about the relative viability (A-427; first compound 1.265 µM) of the same compound?
**A.** 0.573

**Q.** And the relative viability (COR-L 105; first compound 0.04 µM)?
**A.** 0.723

**Q.** And the relative viability (COR-L 105; first compound 0.1265 µM)?
**A.** 0.682

**Q.** What about the relative viability (COR-L 105; first compound 0.4 µM) of the same compound?
**A.** 0.75

**Q.** What about the relative viability (COR-L 105; first compound 1.265 µM) of the same compound?
**A.** 0.647

**Q.** What about the relative viability (NCI-H1792; first compound 0.04 µM) of the same compound?
**A.** 0.422

**Q.** What about the relative viability (NCI-H1792; first compound 0.1265 µM) of the same compound?
**A.** 0.655

**Q.** What about the relative viability (NCI-H1792; first compound 0.4 µM) of the same compound?
**A.** 0.446

**Q.** What about the relative viability (NCI-H1792; first compound 1.265 µM) of the same compound?
**A.** 0.405

**Q.** And the relative viability (NCI-H460; first compound 0.04 µM)?
**A.** 0.523

**Q.** What about the relative viability (NCI-H460; first compound 0.1265 µM) of the same compound?
**A.** 0.463

**Q.** And the relative viability (NCI-H460; first compound 0.4 µM)?
**A.** 0.456

**Q.** What about the relative viability (NCI-H460; first compound 1.265 µM) of the same compound?
**A.** 0.42

**Q.** What about the relative viability (NCI-H2228; first compound 0.04 µM) of the same compound?
**A.** 0.728

**Q.** And the relative viability (NCI-H2228; first compound 0.1265 µM)?
**A.** 0.645

**Q.** What about the relative viability (NCI-H2228; first compound 0.4 µM) of the same compound?
**A.** 0.626

**Q.** What about the relative viability (NCI-H2228; first compound 1.265 µM) of the same compound?
**A.** 0.309

**Q.** And the relative viability (HARA; first compound 0.04 µM)?
**A.** 0.878

**Q.** And the relative viability (HARA; first compound 0.1265 µM)?
**A.** 0.678

**Q.** And the relative viability (HARA; first compound 0.4 µM)?
**A.** 0.886

**Q.** What about the relative viability (HARA; first compound 1.265 µM) of the same compound?
**A.** 0.329

**Q.** What about the relative viability (LCLC-103H; first compound 0.04 µM) of the same compound?
**A.** 0.728

**Q.** And the relative viability (LCLC-103H; first compound 0.1265 µM)?
**A.** 0.771

**Q.** What about the relative viability (LCLC-103H; first compound 0.4 µM) of the same compound?
**A.** 0.758

**Q.** What about the relative viability (LCLC-103H; first compound 1.265 µM) of the same compound?
**A.** 0.729

**Q.** What about the relative viability (EMC-BAC-2; first compound 0.04 µM) of the same compound?
**A.** 0.453

**Q.** And the relative viability (EMC-BAC-2; first compound 0.1265 µM)?
**A.** 0.506

**Q.** And the relative viability (EMC-BAC-2; first compound 0.4 µM)?
**A.** 0.429

**Q.** What about the relative viability (EMC-BAC-2; first compound 1.265 µM) of the same compound?
**A.** 0.368

**Q.** What about the relative viability (NCI-H1355; first compound 0.04 µM) of the same compound?
**A.** 0.786

**Q.** And the relative viability (NCI-H1355; first compound 0.1265 µM)?
**A.** 0.837

**Q.** And the relative viability (NCI-H1355; first compound 0.4 µM)?
**A.** 0.666

**Q.** What about the relative viability (NCI-H1355; first compound 1.265 µM) of the same compound?
**A.** 0.323

**Q.** What about the relative viability (CAL-12T; first compound 0.04 µM) of the same compound?
**A.** 0.656

**Q.** What about the relative viability (CAL-12T; first compound 0.1265 µM) of the same compound?
**A.** 0.668

**Q.** What about the relative viability (CAL-12T; first compound 0.4 µM) of the same compound?
**A.** 0.566

**Q.** And the relative viability (CAL-12T; first compound 1.265 µM)?
**A.** 0.379

**Q.** And the relative viability (NCI-H1755; first compound 0.04 µM)?
**A.** 0.879

**Q.** What about the relative viability (NCI-H1755; first compound 0.1265 µM) of the same compound?
**A.** 0.943

**Q.** And the relative viability (NCI-H1755; first compound 0.4 µM)?
**A.** 0.885

**Q.** What about the relative viability (NCI-H1755; first compound 1.265 µM) of the same compound?
**A.** 0.86

**Q.** And the relative viability (HCC-366; first compound 0.04 µM)?
**A.** 0.362

**Q.** And the relative viability (HCC-366; first compound 0.1265 µM)?
**A.** 0.419

**Q.** What about the relative viability (HCC-366; first compound 0.4 µM) of the same compound?
**A.** 0.422

**Q.** And the relative viability (HCC-366; first compound 1.265 µM)?
**A.** 0.376

**Q.** And the relative viability (NCI-H1395; first compound 0.04 µM)?
**A.** 0.473

**Q.** What about the relative viability (NCI-H1395; first compound 0.1265 µM) of the same compound?
**A.** 0.495

**Q.** What about the relative viability (NCI-H1395; first compound 0.4 µM) of the same compound?
**A.** 0.495

**Q.** What about the relative viability (NCI-H1395; first compound 1.265 µM) of the same compound?
**A.** 0.444

**Q.** What about the relative viability (SW 1573; first compound 0.04 µM) of the same compound?
**A.** 0.527

**Q.** And the relative viability (SW 1573; first compound 0.1265 µM)?
**A.** 0.528

**Q.** And the relative viability (SW 1573; first compound 0.4 µM)?
**A.** 0.427

**Q.** And the relative viability (SW 1573; first compound 1.265 µM)?
**A.** 0.341

**Q.** And the relative viability (HCC-827; first compound 0.04 µM)?
**A.** 0.559

**Q.** What about the relative viability (HCC-827; first compound 0.1265 µM) of the same compound?
**A.** 0.714

**Q.** And the relative viability (HCC-827; first compound 0.4 µM)?
**A.** 0.569

**Q.** And the relative viability (HCC-827; first compound 1.265 µM)?
**A.** 0.398

**Q.** And the relative viability (SK-LU-1; first compound 0.04 µM)?
**A.** 0.457

**Q.** And the relative viability (SK-LU-1; first compound 0.1265 µM)?
**A.** 0.459

**Q.** What about the relative viability (SK-LU-1; first compound 0.4 µM) of the same compound?
**A.** 0.512

**Q.** What about the relative viability (SK-LU-1; first compound 1.265 µM) of the same compound?
**A.** 0.318

**Q.** And the relative viability (NCI-H2009; first compound 0.04 µM)?
**A.** 0.679

**Q.** What about the relative viability (NCI-H2009; first compound 0.1265 µM) of the same compound?
**A.** 0.708

**Q.** What about the relative viability (NCI-H2009; first compound 0.4 µM) of the same compound?
**A.** 0.653

**Q.** What about the relative viability (NCI-H2009; first compound 1.265 µM) of the same compound?
**A.** 0.568

**Q.** And the relative viability (HOP-62; first compound 0.04 µM)?
**A.** 0.352

**Q.** What about the relative viability (HOP-62; first compound 0.1265 µM) of the same compound?
**A.** 0.448

**Q.** What about the relative viability (HOP-62; first compound 0.4 µM) of the same compound?
**A.** 0.356

**Q.** What about the relative viability (HOP-62; first compound 1.265 µM) of the same compound?
**A.** 0.382
